Values of other authors as cited in US20190046552A1, “COMPOSITIONS AND METHODS FOR THE TREATMENT OF HCV INFECTION” (priority 2015, published 2019).

Test system: panel of cell lines
Settings: read-out: 50% cytotoxic concentration (CC50), Coughlin et al. 2010; cited from earlier work

CO[C@H]1C(OP(=O)(OC[C@H]2O[C@@H](n3cnc4c(N)ncnc43)CC2O)SCOC(=O)OC(C)C)[C@@H](CO)O[C@H]1n1ccc(=O)[nH]c1=O (stereo partly shown) [Formula (II)]
CC50: > 1 mM
